Organism: Rattus norvegicus
Assay: Open TG-GATES - Regimen: Single
Assay type: toxicity, organism-based, Sprague-Dawley
Parameters: regimen Single, gender Male, age 6 weeks
Settings: in vivo, iv, route intravenous injection; for IP / K / LDH / Na / PL / RALB / TBIL / TC / TG / TP / gamma-GTP / A/G / ALP / ALT / AST / BUN / CRE / Ca / Cl / DBIL / GLC: tissue Plasma; for APTT / Bas / Eos / Fbg / Hb / Ht / Lym / MCH / MCHC / MCV / Mono / Neu / PT / Plat / RBC / Ret / WBC: tissue Blood; for KIDNEY_L / KIDNEY_R / KIDNEY_TOTAL: tissue Kidney; for LIVER: tissue Liver
[1] = 2 mg/kg, 6 h, dose level Middle
[2] = 2 mg/kg, 9 h, dose level Middle
[3] = 2 mg/kg, 24 h, dose level Middle

C[C@@H]1[C@H](O)[C@@H](C)/C=C/C=C/C=C/C=C/C=C/C=C/C=C/[C@H](O[C@@H]2O[C@H](C)[C@@H](O)[C@H](N)[C@@H]2O)C[C@@H]2O[C@](O)(C[C@@H](O)C[C@@H](O)[C@H](O)CC[C@@H](O)C[C@@H](O)CC(=O)O[C@H]1C)C[C@H](O)[C@H]2C(=O)O [AMPHOTERICIN B]
IP [1]: 11.3 mg/dL
K [1]: 5.5 meq/L
LDH [1]: 531 IU/L
Na [1]: 142.5 meq/L
PL [1]: 116.2 mg/dL
RALB [1]: 2.5 g/dL
TBIL [1]: 0.0675 mg/dL
TC [1]: 69 mg/dL
TG [1]: 41 mg/dL
TP [1]: 5.5 g/dL
gamma-GTP [1]: 3.2 IU/L
TERMINAL_BW [2]: 209.6 g
APTT [2]: 16.5 s
Bas [2]: 0%
Eos [2]: 0.2%
Fbg [2]: 288.2 mg/dL
Hb [2]: 13.5 g/dL
Ht [2]: 37.5%
Lym [2]: 59%
MCH [2]: 21.2 pg
MCHC [2]: 36%
MCV [2]: 59 fL
Mono [2]: 3.5%
Neu [2]: 35.8%
PT [2]: 12.8 s
Plat [2]: 147.9 x10_4/uL
RBC [2]: 634.8 x10_4/ul
Ret [2]: 7.8%
WBC [2]: 117.4 x10_2/uL
KIDNEY_L [2]: 1 g
KIDNEY_R [2]: 1 g
KIDNEY_TOTAL [2]: 2 g
LIVER [2]: 8.3 g
A/G [2]: 0.8
ALP [2]: 1444 IU/L
ALT [2]: 39.5 IU/L
AST [2]: 80.8 IU/L
BUN [2]: 29.8 mg/dL
CRE [2]: 0.2 mg/dL
Ca [2]: 10.8 mg/dL
Cl [2]: 109.2 meq/L
DBIL [2]: 0.0225 mg/dL
GLC [2]: 171.5 mg/dL
IP [2]: 10.7 mg/dL
K [2]: 3.8 meq/L
LDH [2]: 64.8 IU/L
Na [2]: 145 meq/L
PL [2]: 139.8 mg/dL
RALB [2]: 2.5 g/dL
TBIL [2]: 0.0875 mg/dL
TC [2]: 83.5 mg/dL
TG [2]: 22.8 mg/dL
TP [2]: 5.6 g/dL
gamma-GTP [2]: 1.5 IU/L
TERMINAL_BW [3]: 219.6 g
APTT [3]: 14.8 s
Bas [3]: 0%
Eos [3]: 1%
Fbg [3]: 363 mg/dL
Hb [3]: 13.6 g/dL
Ht [3]: 39.2%
Lym [3]: 74%
MCH [3]: 20.6 pg
MCHC [3]: 34.7%
MCV [3]: 59.2 fL
Mono [3]: 2.7%
Neu [3]: 21.7%
PT [3]: 12.3 s
Plat [3]: 150.1 x10_4/uL
RBC [3]: 663 x10_4/ul
Ret [3]: 6.5%
WBC [3]: 92.3 x10_2/uL
KIDNEY_L [3]: 1 g
KIDNEY_R [3]: 1 g
KIDNEY_TOTAL [3]: 2 g
LIVER [3]: 10.1 g
A/G [3]: 0.8
ALP [3]: 1322 IU/L
ALT [3]: 32.3 IU/L
AST [3]: 65 IU/L
BUN [3]: 22.7 mg/dL
CRE [3]: 0.2 mg/dL
Ca [3]: 11 mg/dL
Cl [3]: 106.7 meq/L
DBIL [3]: 0.0133 mg/dL
GLC [3]: 171.3 mg/dL
IP [3]: 7.6 mg/dL
K [3]: 4.3 meq/L
LDH [3]: 57.3 IU/L
Na [3]: 144 meq/L
PL [3]: 148.7 mg/dL
RALB [3]: 2.6 g/dL
TBIL [3]: 0.0567 mg/dL
TC [3]: 91.3 mg/dL
TG [3]: 64.7 mg/dL
TP [3]: 5.9 g/dL
gamma-GTP [3]: 1.3 IU/L
TERMINAL_BW (4 mg/kg, 24 h, dose level High): 207 g
APTT (4 mg/kg, 24 h, dose level High): 12.7 s
Bas (4 mg/kg, 24 h, dose level High): 0%
Eos (4 mg/kg, 24 h, dose level High): 1%
Fbg (4 mg/kg, 24 h, dose level High): 536 mg/dL
Hb (4 mg/kg, 24 h, dose level High): 14.3 g/dL
Ht (4 mg/kg, 24 h, dose level High): 37.3%
Lym (4 mg/kg, 24 h, dose level High): 55%
MCH (4 mg/kg, 24 h, dose level High): 21.1 pg
MCHC (4 mg/kg, 24 h, dose level High): 38.3%
MCV (4 mg/kg, 24 h, dose level High): 55.1 fL
Mono (4 mg/kg, 24 h, dose level High): 2%
Neu (4 mg/kg, 24 h, dose level High): 42%
PT (4 mg/kg, 24 h, dose level High): 11.1 s
Plat (4 mg/kg, 24 h, dose level High): 105.2 x10_4/uL
RBC (4 mg/kg, 24 h, dose level High): 676 x10_4/ul
Ret (4 mg/kg, 24 h, dose level High): 6.3%
WBC (4 mg/kg, 24 h, dose level High): 121.2 x10_2/uL
KIDNEY_L (4 mg/kg, 24 h, dose level High): 1.2 g
KIDNEY_R (4 mg/kg, 24 h, dose level High): 1.1 g
KIDNEY_TOTAL (4 mg/kg, 24 h, dose level High): 2.4 g
LIVER (4 mg/kg, 24 h, dose level High): 8.7 g
A/G (4 mg/kg, 24 h, dose level High): 0.7
ALP (4 mg/kg, 24 h, dose level High): 1402 IU/L
ALT (4 mg/kg, 24 h, dose level High): 227 IU/L
AST (4 mg/kg, 24 h, dose level High): 699 IU/L
BUN (4 mg/kg, 24 h, dose level High): 53 mg/dL
CRE (4 mg/kg, 24 h, dose level High): 0.3 mg/dL
Ca (4 mg/kg, 24 h, dose level High): 11 mg/dL
Cl (4 mg/kg, 24 h, dose level High): 108 meq/L
DBIL (4 mg/kg, 24 h, dose level High): 0.03 mg/dL
GLC (4 mg/kg, 24 h, dose level High): 160 mg/dL
IP (4 mg/kg, 24 h, dose level High): 8 mg/dL
K (4 mg/kg, 24 h, dose level High): 4.1 meq/L
LDH (4 mg/kg, 24 h, dose level High): 117 IU/L
Na (4 mg/kg, 24 h, dose level High): 146 meq/L
PL (4 mg/kg, 24 h, dose level High): 111 mg/dL
RALB (4 mg/kg, 24 h, dose level High): 2.5 g/dL
TBIL (4 mg/kg, 24 h, dose level High): 0.1 mg/dL
TC (4 mg/kg, 24 h, dose level High): 76 mg/dL
TG (4 mg/kg, 24 h, dose level High): 13 mg/dL
TP (4 mg/kg, 24 h, dose level High): 6.1 g/dL
gamma-GTP (4 mg/kg, 24 h, dose level High): 2 IU/L
